The values that follow come from PMC12834961 (Scientific Reports, 2025).

In this assay the target is epidermal growth factor receptor (EGFR) (Homo sapiens, UniProt P00533). In words: SPR. Format: binding.
Sequence of epidermal growth factor receptor (EGFR) (P00533 25-1210): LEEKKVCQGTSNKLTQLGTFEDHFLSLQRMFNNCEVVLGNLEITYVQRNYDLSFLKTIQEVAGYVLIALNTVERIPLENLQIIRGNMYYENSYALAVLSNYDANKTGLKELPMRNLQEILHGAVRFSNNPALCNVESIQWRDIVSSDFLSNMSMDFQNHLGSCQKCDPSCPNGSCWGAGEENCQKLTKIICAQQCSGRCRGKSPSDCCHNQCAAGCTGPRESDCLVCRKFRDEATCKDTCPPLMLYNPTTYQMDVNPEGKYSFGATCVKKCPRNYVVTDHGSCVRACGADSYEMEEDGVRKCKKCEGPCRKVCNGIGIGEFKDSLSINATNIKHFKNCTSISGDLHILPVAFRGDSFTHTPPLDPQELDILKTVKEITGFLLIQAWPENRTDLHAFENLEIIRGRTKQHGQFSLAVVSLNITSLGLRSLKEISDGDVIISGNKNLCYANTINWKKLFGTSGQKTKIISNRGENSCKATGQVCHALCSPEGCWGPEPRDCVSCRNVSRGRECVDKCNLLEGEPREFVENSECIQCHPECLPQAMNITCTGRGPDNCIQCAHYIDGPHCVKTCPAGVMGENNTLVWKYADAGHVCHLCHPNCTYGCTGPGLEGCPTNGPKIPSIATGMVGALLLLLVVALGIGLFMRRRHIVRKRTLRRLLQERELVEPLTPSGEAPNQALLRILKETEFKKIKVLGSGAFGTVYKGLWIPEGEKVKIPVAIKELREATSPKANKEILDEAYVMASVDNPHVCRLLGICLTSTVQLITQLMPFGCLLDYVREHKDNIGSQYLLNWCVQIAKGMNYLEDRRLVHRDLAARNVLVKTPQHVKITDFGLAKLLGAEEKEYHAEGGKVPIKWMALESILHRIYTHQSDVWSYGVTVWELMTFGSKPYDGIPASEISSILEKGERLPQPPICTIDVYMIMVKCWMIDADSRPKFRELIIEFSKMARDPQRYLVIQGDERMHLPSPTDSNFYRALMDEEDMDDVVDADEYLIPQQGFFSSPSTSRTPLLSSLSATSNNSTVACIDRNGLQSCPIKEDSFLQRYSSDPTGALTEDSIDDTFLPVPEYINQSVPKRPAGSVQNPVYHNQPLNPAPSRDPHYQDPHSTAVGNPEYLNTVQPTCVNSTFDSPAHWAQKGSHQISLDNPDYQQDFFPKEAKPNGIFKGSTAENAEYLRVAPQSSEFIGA

For the compound `O=c1c(-c2ccc(O[C@@H]3O[C@H](CO)[C@@H](O)[C@H](O)[C@H]3O)cc2)coc2cc(O)cc(O)c12` [Sop, Sophoricoside], the equilibrium dissociation constant (Kd) – broadly, the concentration at which binding is half-saturated – is about 56.1 µM.
